Data on 22 compounds can be found in patent US20260085062A1, “NOVEL COMPOUNDS AS CK2 INHIBITORS” (Cambridge Enterprise Limited, priority 2022, published 2026).

For experiment [1], the target named is T1, CK2α (Homo sapiens, UniProt P68400).
T1 construct: CK2α (residues 2-329) was produced in Escherichia coli BL21 (DE3) for kinase activity screening; His6 (N, cleaved yes); made in house; host or cells: Escherichia coli BL21 (DE3)
T1 sequence (P68400 2-329): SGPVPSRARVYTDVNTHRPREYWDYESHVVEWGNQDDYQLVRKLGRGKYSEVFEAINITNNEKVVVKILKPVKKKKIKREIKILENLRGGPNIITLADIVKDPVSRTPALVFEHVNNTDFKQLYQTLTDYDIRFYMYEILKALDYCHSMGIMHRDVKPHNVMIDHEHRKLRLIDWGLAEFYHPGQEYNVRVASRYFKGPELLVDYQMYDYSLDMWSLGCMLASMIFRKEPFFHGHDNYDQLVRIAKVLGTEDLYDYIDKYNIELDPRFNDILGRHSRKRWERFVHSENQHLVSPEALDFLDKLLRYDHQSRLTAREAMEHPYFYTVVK
The experiment in a line: Biochemical assay for inhibitors of CK2α kinase activity (ADP-Glo). Conditions: 0.2 nM CK2α, 50 μM peptide substrate, 15 μM ATP, read-out: Assay 1: CK2α Enzyme IC50.

For experiment [2], the target named is T2, CLK2 (Homo sapiens, UniProt P49760).
T2 construct: purchased Carna Biosciences 04-127
T2 sequence (P49760 whole entry): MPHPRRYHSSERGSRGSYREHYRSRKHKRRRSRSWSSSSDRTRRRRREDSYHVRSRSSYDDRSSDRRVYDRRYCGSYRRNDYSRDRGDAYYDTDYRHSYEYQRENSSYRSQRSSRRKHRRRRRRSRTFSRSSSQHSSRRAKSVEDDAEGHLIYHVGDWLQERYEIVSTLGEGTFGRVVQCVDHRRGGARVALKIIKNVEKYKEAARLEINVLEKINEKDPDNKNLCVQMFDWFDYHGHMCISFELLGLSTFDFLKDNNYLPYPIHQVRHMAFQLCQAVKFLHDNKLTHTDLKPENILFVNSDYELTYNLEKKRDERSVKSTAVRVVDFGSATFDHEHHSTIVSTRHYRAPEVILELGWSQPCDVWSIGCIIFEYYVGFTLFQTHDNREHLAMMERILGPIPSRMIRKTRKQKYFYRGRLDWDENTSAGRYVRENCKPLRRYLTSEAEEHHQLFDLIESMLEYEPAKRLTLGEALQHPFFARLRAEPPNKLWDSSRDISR
The experiment in a line: Biochemical assay for inhibitors of CLK2 kinase activity (ADP-Glo). Particulars: 20 nM CLK2, 50 μM peptide substrate, 100 μM ATP, read-out: Assay 2: CLK2 Enzyme IC50. On the technique in general: ADP-Glo first removes unused ATP, then detects ADP through luciferase.

The target in experiment [3] is T3, intracellular CK2α (Homo sapiens, UniProt P19784).
T3 construct: host or cells: HCT116 (ATCC CCL-247)
T3 sequence (P19784 whole entry): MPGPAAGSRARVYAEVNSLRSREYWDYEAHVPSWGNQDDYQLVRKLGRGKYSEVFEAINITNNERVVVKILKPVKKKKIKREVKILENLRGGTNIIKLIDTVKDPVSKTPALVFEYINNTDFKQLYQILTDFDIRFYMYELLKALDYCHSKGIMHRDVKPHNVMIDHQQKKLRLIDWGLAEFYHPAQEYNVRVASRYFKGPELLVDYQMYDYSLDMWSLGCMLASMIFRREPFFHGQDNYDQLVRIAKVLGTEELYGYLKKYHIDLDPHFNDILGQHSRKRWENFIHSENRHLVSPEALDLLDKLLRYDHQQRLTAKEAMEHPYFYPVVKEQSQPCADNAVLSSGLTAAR
The experiment in a line: Cell-based NanoBRET assay for inhibitor binding to intracellular CK2α. Particulars: HCT116 cells transiently transfected with CSNK2A2-NanoLuc fusion vector; Tracer K-5; 2 h; read-out: Assay 3: NanoBRET ™ assay for binding to intracellular CK2α. Put shortly: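 Living cells expressing NanoLuc-CK2α fusion were given a fixed tracer concentration, and compounds competitively displaced the reversibly bound tracer. Donor (450 nm) and acceptor (610 or 630 nm) emissions were read; BRET ratio = (acceptor/donor)×1,000, giving apparent intracellular affinity.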

`OCCOc1cc(CNC2CC(COCCNc3cc(-c4cnns4)cc4[nH]ncc34)C2)cc(OC(F)(F)F)c1` (stereo not drawn) [Example 205]: the figures for the IC50 in experiment [1], in experiment [2] and in experiment [3] were 12.7 nM, 214 nM and 467 nM, respectively.
On to `FC(F)(F)c1ccc2[nH]c(CNCCCCOC3CN(c4cc(-c5ccnnc5)cc5[nH]nnc45)C3)cc2c1` [Example 149, 4-((1-(6-(pyridazin-4-yl)-1H-benzo[d][1,2,3]triazol-4-yl)azetidin-3-yl)oxy)-N-((5-(trifluoromethyl)-1H-indol-2-yl)methyl)butan-1-amine], for which the IC50 in experiment [1] is 255 nM; in experiment [2], 15300 nM; in experiment [3], > 50000 nM.
In the case of `Cc1c(-c2ccncc2)cc(NCCCNC(=O)CCNCc2ccc(OC(F)(F)F)c(Cl)c2)c2cn[nH]c12` [Example 178, 3-((3-chloro-4-(trifluoromethoxy)benzyl)amino)-N-(3-((7-methyl-6-(pyridin-4-yl)-1H-indazol-4-yl)amino)propyl)propanamide], the values for the IC50 in experiment [1], in experiment [2] and in experiment [3] were 23.9 nM, 1500 nM and 2540 nM, respectively.
Consider `FC(F)(F)c1ccc2[nH]c(CNCCCCOCCOc3cc(-c4cnoc4)cc4[nH]ncc34)cc2c1` [Example 144, 4-(2-((6-(isoxazol-4-yl)-1H-indazol-4-yl)oxy)ethoxy)-N-((5-(trifluoromethyl)-1H-indol-2-yl)methyl)butan-1-amine], for which the IC50 in experiment [1] is 4.72 nM; in experiment [2], 271 nM; in experiment [3], 347 nM.
Regarding `CNc1n[nH]c2cc(-n3cnnc3)cc(NCCCNC(=O)CCNCc3ccc(OC(F)(F)F)c(Cl)c3)c12` [Example 191, 3-((3-chloro-4-(trifluoromethoxy)benzyl)amino)-N-(3-((3-(methylamino)-6-(4H-1,2,4-triazol-4-yl)-1H-indazol-4-yl)amino)propyl)propanamide], the values for the IC50 in experiment [1], in experiment [2] and in experiment [3] were 0.57 nM, 133 nM and 842 nM, respectively.
Take `FC(F)(F)Oc1ccc(CNCCCNCCCOc2cc(-n3cnnc3)cc3[nH]ncc23)cc1Cl` [Example 67, N1-(3-((6-(4H-1,2,4-triazol-4-yl)-1H-indazol-4-yl)oxy)propyl)-N3-(3-chloro-4-(trifluoromethoxy)benzyl)propane-1,3-diamine]: the IC50 in experiment [1] is 278 nM; in experiment [2], 4160 nM; in experiment [3], 13800 nM.
For the compound `O=C(CCNCc1ccc(OC(F)(F)F)c(Cl)c1)NCCCNc1cccc2[nH]ncc12` [Example 163, N-(3-((1H-indazol-4-yl)amino)propyl)-3-((3-chloro-4-(trifluoromethoxy)benzyl)amino)propanamide], the IC50 in experiment [1] stood at 217 nM; in experiment [2], 6570 nM; in experiment [3], 26800 nM.
`N#Cc1[nH]ncc1-c1cc(NCCCNC(=O)CCNCc2ccc(OC(F)(F)F)c(Cl)c2)c2cn[nH]c2c1` [Example 156, 3-((3-chloro-4-(trifluoromethoxy)benzyl)amino)-N-(3-((6-(5-cyano-1H-pyrazol-4-yl)-1H-indazol-4-yl)amino)propyl)propanamide]: the figures for the IC50 in experiment [1], in experiment [2] and in experiment [3] were 0.64 nM, 71 nM and 108 nM, respectively.
As for `c1cc2[nH]c(CNCCCCOCCOc3cc(-n4cnnc4)cc4[nH]ncc34)cc2cc1OC1CCC1` [Example 118, 4-(2-((6-(4H-1,2,4-triazol-4-yl)-1H-indazol-4-yl)oxy)ethoxy)-N-((5-cyclobutoxy-1H-indol-2-yl)methyl)butan-1-amine], the IC50 in experiment [1] is 0.86 nM; in experiment [2], 1100 nM; in experiment [3], 204 nM.
The corresponding values for `O=C(CCNCc1n[nH]c(-c2ccccc2)c1Cl)NCCCNc1cc(-n2cnnc2)cc2[nH]ncc12` [Example 34, N-(3-((6-(4H-1,2,4-triazol-4-yl)-1H-indazol-4-yl)amino)propyl)-3-(((4-chloro-5-phenyl-1H-pyrazol-3-yl)methyl)amino)propanamide] are 3.32 nM, 70.8 nM and 9890 nM.
With `N#Cc1n[nH]cc1-c1cc(NCCCNC(=O)CCNCc2ccc(-c3ccccc3)c(Cl)c2)c2cn[nH]c2c1` [Example 7, 3-(((2-chloro-[1,1′-biphenyl]-4-yl)methyl)amino)-N-(3-((6-(3-cyano-1H-pyrazol-4-yl)-1H-indazol-4-yl)amino)propyl)propanamide], the IC50 in experiment [1] was 0.25 nM; in experiment [2], 69.8 nM; in experiment [3], 146 nM.
On to `N#CCc1cc(Cl)cc(CNCCCCOC2CN(c3cc(-c4cnoc4)cc4[nH]ncc34)C2)c1` [Example 122, 2-(3-chloro-5-(((4-((1-(6-(isoxazol-4-yl)-1H-indazol-4-yl)azetidin-3-yl)oxy)butyl)amino)methyl)phenyl)acetonitrile], for which the IC50 is 29.8 nM in experiment [1], 106 nM in experiment [2] and 840 nM in experiment [3].
As for `FC(F)(F)c1ccc2[nH]c(CNCCCCOCCOc3cc(-n4cnnc4)cc4[nH]nnc34)cc2c1` [Example 116, 4-(2-((6-(4H-1,2,4-triazol-4-yl)-1H-benzo[d][1,2,3]triazol-4-yl)oxy)ethoxy)-N-((5-(trifluoromethyl)-1H-indol-2-yl)methyl)butan-1-amine], the IC50 in experiment [1] was 247 nM; in experiment [2], > 50000 nM; in experiment [3], > 50000 nM.
`O=C(CCNCc1ccc(-c2ccccc2)c(Cl)c1)NCCCNc1cc(-c2ccnnc2)cc2[nH]ncc12` [Example 6, 3-(((2-chloro-[1,1′-biphenyl]-4-yl)methyl)amino)-N-(3-((6-(pyridazin-4-yl)-1H-indazol-4-yl)amino)propyl)propanamide]: the values for the IC50 in experiment [1], in experiment [2] and in experiment [3] were 0.19 nM, 235 nM and 50.8 nM, respectively.
As to `FC(F)(F)c1ccc2[nH]c(CNCCCCOC3CN(c4cc(-c5cnoc5)cc5[nH]ncc45)C3)cc2c1` [Example 139, 4-((1-(6-(isoxazol-4-yl)-1H-indazol-4-yl)azetidin-3-yl)oxy)-N-((5-(trifluoromethyl)-1H-indol-2-yl)methyl)butan-1-amine], the IC50 in experiment [1] is 10.9 nM; in experiment [2], 498 nM; in experiment [3], 2360 nM.
As for `O=C(CCNCc1ccc(C2CC2)c(CO)c1)NCCCNc1cc(-n2cnnc2)cc2[nH]ncc12` [Example 77, N-(3-((6-(4H-1,2,4-triazol-4-yl)-1H-indazol-4-yl)amino)propyl)-3-((4-cyclopropyl-3-(hydroxymethyl)benzyl)amino)propanamide], the IC50 in experiment [1] was 5.71 nM; in experiment [2], 95.7 nM; in experiment [3], > 50000 nM.
On to `C[C@@H](CCCOCCNc1cc(-c2cnnc(O)c2)cc2[nH]ncc12)NCc1cc(Cc2cnco2)cc(OC(F)(F)F)c1` [Example 195, (S)-5-(4-((2-((4-((3-(oxazol-5-ylmethyl)-5-(trifluoromethoxy)benzyl)amino)pentyl)oxy)ethyl)amino)-1H-indazol-6-yl)pyridazin-3-ol], for which the IC50 in experiment [1] was determined as 0.41 nM; in experiment [2], 227 nM; in experiment [3], 21.4 nM.
For the compound `COC(=O)c1cc(NCCOCCCCNCc2cc3cc(C(F)(F)F)ccc3[nH]2)c2cn[nH]c2c1` [Example 84, methyl4-((2-(4-(((5-(trifluoromethyl)-1H-indol-2-yl)methyl)amino)butoxy)ethyl)amino)-1H-indazole-6-carboxylate], the IC50 in experiment [1] was 395 nM; in experiment [2], 10500 nM; in experiment [3] it was 36500 nM.
On to `O=C(CCNCc1ccc(OC(F)(F)F)c(Cl)c1)NCCCNc1cc(-c2ccncc2F)cc2[nH]ncc12` [Example 162, 3-((3-chloro-4-(trifluoromethoxy)benzyl)amino)-N-(3-((6-(3-fluoropyridin-4-yl)-1H-indazol-4-yl)amino)propyl)propanamide], for which the values for the IC50 in experiment [1], in experiment [2] and in experiment [3] were 6.53 nM, 807 nM and 402 nM, respectively.
Consider `O=C(CCNCc1ccc(OC(F)(F)F)c(Cl)c1)NCCCNc1cc(-c2cc[nH]c(=O)n2)cc2[nH]ncc12` [Example 170, 3-((3-chloro-4-(trifluoromethoxy)benzyl)amino)-N-(3-((6-(2-oxo-1,2-dihydropyrimidin-4-yl)-1H-indazol-4-yl)amino)propyl)propanamide], for which the results for the IC50 in experiment [1], in experiment [2] and in experiment [3] were 6.64 nM, 6390 nM and > 50000 nM, respectively.
In the case of `O=C(CCNCc1cccc(Cl)c1)NCCCNc1cc(-n2cnnc2)cc2[nH]ncc12` [Example 13, N-(3-((6-(4H-1,2,4-triazol-4-yl)-1H-indazol-4-yl)amino)propyl)-3-((3-chlorobenzyl)amino)propanamide], the IC50 in experiment [1] worked out at 1.43 nM; in experiment [2] it was 51.7 nM; in experiment [3], 3890 nM.
For the compound `O=C(CCNCc1ccc(-c2ccccc2)c(Cl)c1)NCCCNc1cc(CO)cc2[nH]ncc12` [Example 63, 3-(((2-chloro-[1,1′-biphenyl]-4-yl)methyl)amino)-N-(3-((6-(hydroxymethyl)-1H-indazol-4-yl)amino)propyl)propanamide], the results for the IC50 in experiment [1], in experiment [2] and in experiment [3] were 68.3 nM, 2370 nM and 4980 nM, respectively.
